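Dose response: 5 concentrations. Exposure: 48 h. Format: 96-well plates. Endpoint: linear interpolation; highest concentration if not reached. GI50 = concentration required for 50% inhibition of growth. TGI: concentration producing complete growth inhibition.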
Tests used:
Test in all cases: NCI tumour cell line growth inhibition, 48 h
[1] = tested on: OVCAR-5 ovarian
[2] = tested on: PC-3 prostate
[3] = tested on: COLO 205 colon
[4] = tested on: K-562 leukemia
[5] = tested on: SR leukemia
[6] = tested on: SK-MEL-28 melanoma
[7] = tested on: OVCAR-3 ovarian
[8] = tested on: SNB-19 CNS
[9] = tested on: HCC-2998 colon
[10] = tested on: NCI-H23 lung
[11] = tested on: A549 NSCLC
[12] = tested on: NCI-H522 lung
[13] = tested on: LOX IMVI melanoma
[14] = tested on: MDA-MB-231 breast
[15] = tested on: BT-549 breast
[16] = tested on: OVCAR-8 ovarian
[17] = tested on: UO-31 renal
[18] = tested on: ACHN renal
[19] = tested on: A498 renal
[20] = tested on: M14 melanoma
[21] = tested on: HS 578T breast
[22] = tested on: HCT-15 colon
[23] = tested on: DU-145 prostate
[24] = tested on: SW-620 colon
[25] = tested on: IGROV1 ovarian
[26] = tested on: SN12C renal
[27] = tested on: TK-10 renal
[28] = tested on: HL-60(TB) leukemia
[29] = tested on: SF-268 CNS
[30] = tested on: MOLT-4 leukemia
[31] = tested on: HOP-92 NSCLC
[32] = tested on: MDA-MB-468 breast
[33] = tested on: UACC-62 melanoma
[34] = tested on: U251 CNS
[35] = tested on: RPMI-8226 leukemia
[36] = tested on: SNB-75 CNS
[37] = tested on: NCI-H226 lung
[38] = tested on: OVCAR-4 ovarian
[39] = tested on: EKVX NSCLC
[40] = tested on: 786-0 renal
[41] = tested on: UACC-257 melanoma
[42] = tested on: HOP-62 NSCLC
[43] = tested on: MDA-MB-435
[44] = tested on: SK-MEL-5 melanoma
[45] = tested on: CCRF-CEM leukemia
[46] = tested on: CAKI-1 renal
[47] = tested on: HCT-116 colon
[48] = tested on: KM12 colon
[49] = tested on: MCF7 breast
[50] = tested on: HT29 colon
[51] = tested on: SF-295 CNS
[52] = tested on: MALME-3M melanoma
[53] = tested on: T-47D breast
[54] = tested on: SK-OV-3 ovarian
[55] = tested on: NCI-H460 lung
[56] = tested on: NCI/ADR-RES ovarian
[57] = tested on: RXF 393 renal
[58] = tested on: SF-539 CNS
[59] = tested on: SK-MEL-2 melanoma

COc1ccc(Nc2nc(N)n(Cc3cccc(Br)c3)n2)cc1
GI50 [1]: 50.3 µM | TGI [1]: > 100 µM | GI50 [2]: 25.9 µM | TGI [2]: > 100 µM | GI50 [3]: 48.4 µM | TGI [3]: > 100 µM | GI50 [4]: 28.7 µM | TGI [4]: > 100 µM | GI50 [5]: 91.7 µM | TGI [5]: > 100 µM | GI50 [6]: 35.7 µM | TGI [6]: > 100 µM | GI50 [7]: 35.8 µM | TGI [7]: > 100 µM | GI50 [8]: 48.3 µM | TGI [8]: > 100 µM | GI50 [9]: 34.3 µM | TGI [9]: > 100 µM | GI50 [10]: 32.7 µM | TGI [10]: > 100 µM | GI50 [11]: 36 µM | TGI [11]: > 100 µM | GI50 [12]: 26.5 µM | TGI [12]: > 100 µM | GI50 [13]: 31.5 µM | TGI [13]: > 100 µM | GI50 [14]: 37.1 µM | TGI [14]: > 100 µM | GI50 [15]: 14.5 µM | TGI [15]: > 100 µM | GI50 [16]: 42.1 µM | TGI [16]: > 100 µM | GI50 [17]: 17 µM | TGI [17]: > 100 µM | GI50 [18]: 29.7 µM | TGI [18]: > 100 µM | GI50 [19]: 15.9 µM | TGI [19]: 76.4 µM | GI50 [20]: 36.8 µM | TGI [20]: > 100 µM | GI50 [21]: 15.4 µM | TGI [21]: > 100 µM | GI50 [22]: 30.8 µM | TGI [22]: > 100 µM | GI50 [23]: 65.6 µM | TGI [23]: > 100 µM | GI50 [24]: 57.5 µM | TGI [24]: > 100 µM | GI50 [25]: 26.1 µM | TGI [25]: > 100 µM | GI50 [26]: 33.4 µM | TGI [26]: > 100 µM | GI50 [27]: 61.7 µM | TGI [27]: > 100 µM | GI50 [28]: 18.4 µM | TGI [28]: > 100 µM | GI50 [29]: 27.2 µM | TGI [29]: > 100 µM | GI50 [30]: 26.9 µM | TGI [30]: > 100 µM | GI50 [31]: 11.4 µM | TGI [31]: 68.4 µM | GI50 [32]: 19.3 µM | TGI [32]: 65.5 µM | GI50 [33]: 32.8 µM | TGI [33]: > 100 µM | GI50 [34]: 42.1 µM | TGI [34]: > 100 µM | GI50 [35]: 29.5 µM | TGI [35]: > 100 µM | GI50 [36]: 13.9 µM | TGI [36]: > 100 µM | GI50 [37]: 27.2 µM | TGI [37]: > 100 µM | GI50 [38]: 31.7 µM | TGI [38]: > 100 µM | GI50 [39]: 18 µM | TGI [39]: > 100 µM | GI50 [40]: 34.3 µM | TGI [40]: > 100 µM | GI50 [41]: 38.3 µM | TGI [41]: > 100 µM | GI50 [42]: > 100 µM | TGI [42]: > 100 µM | GI50 [43]: 32.8 µM | TGI [43]: > 100 µM | GI50 [44]: 19.5 µM | TGI [44]: 44 µM | GI50 [45]: 26.3 µM | TGI [45]: > 100 µM | GI50 [46]: 15 µM | TGI [46]: > 100 µM | GI50 [47]: 27.5 µM | TGI [47]: > 100 µM | GI50 [48]: 26.7 µM | TGI [48]: > 100 µM | GI50 [49]: 26 µM | TGI [49]: > 100 µM | GI50 [50]: 64.2 µM | TGI [50]: > 100 µM | GI50 [51]: 28 µM | TGI [51]: > 100 µM | GI50 [52]: 27.2 µM | TGI [52]: > 100 µM | GI50 [53]: 44.5 µM | TGI [53]: > 100 µM | GI50 [54]: 93.2 µM | TGI [54]: > 100 µM | GI50 [55]: 36.2 µM | TGI [55]: > 100 µM | GI50 [56]: 33.3 µM | TGI [56]: > 100 µM | GI50 [57]: 14.3 µM | TGI [57]: 66 µM | GI50 [58]: 29.6 µM | TGI [58]: > 100 µM | GI50 [59]: 31.1 µM | TGI [59]: > 100 µM

Cn1cc(-c2cc(N)n3nc(-c4c[nH]c5ccccc45)cc3n2)c2ccccc21
GI50 [1]: 2.05 µM | TGI [1]: 4.64 µM | GI50 [2]: 3.38 µM | TGI [2]: 14.4 µM | GI50 [3]: 1.72 µM | TGI [3]: 3.35 µM | GI50 [4]: 2.34 µM | TGI [4]: 6.81 µM | GI50 [5]: 2.01 µM | TGI [5]: 39 µM | GI50 [6]: 1.66 µM | TGI [6]: 3.03 µM | GI50 [7]: 2.1 µM | TGI [7]: 4.59 µM | GI50 [8]: 3.14 µM | TGI [8]: 11.4 µM | GI50 [9]: 1.79 µM | TGI [9]: 3.34 µM | GI50 [10]: 2.36 µM | TGI [10]: 5.83 µM | GI50 [11]: 3.01 µM | TGI [11]: 12 µM | GI50 [12]: 1.69 µM | TGI [12]: 3.33 µM | GI50 [13]: 1.81 µM | TGI [13]: 3.25 µM | GI50 [14]: 1.9 µM | TGI [14]: 3.47 µM | GI50 [15]: 14.8 µM | TGI [15]: 29.8 µM | GI50 [16]: 2.66 µM | TGI [16]: 8.25 µM | GI50 [17]: 1.64 µM | TGI [17]: 3.28 µM | GI50 [18]: 2.22 µM | TGI [18]: 4.85 µM | GI50 [19]: 7.63 µM | TGI [19]: 20.8 µM | GI50 [20]: 1.79 µM | TGI [20]: 3.66 µM | GI50 [21]: 5.53 µM | TGI [21]: 45.4 µM | GI50 [22]: 1.64 µM | TGI [22]: 3.3 µM | GI50 [23]: 3.61 µM | TGI [23]: 13.5 µM | GI50 [24]: 1.77 µM | TGI [24]: 3.45 µM | GI50 [25]: 2.64 µM | TGI [25]: 6.84 µM | GI50 [26]: 3.47 µM | TGI [26]: 12.4 µM | GI50 [27]: 2.15 µM | TGI [27]: 7.17 µM | GI50 [28]: 1.99 µM | TGI [28]: 5.08 µM | GI50 [29]: 4.25 µM | TGI [29]: 20.6 µM | GI50 [30]: 2.5 µM | TGI [30]: 8.28 µM | GI50 [31]: 2.29 µM | TGI [31]: 5.47 µM | GI50 [32]: 1.63 µM | TGI [32]: 3.11 µM | GI50 [33]: 1.74 µM | TGI [33]: 3.17 µM | GI50 [34]: 2.04 µM | TGI [34]: 4.04 µM | GI50 [35]: 2.51 µM | TGI [35]: 6.95 µM | GI50 [36]: 7.65 µM | TGI [36]: 21.3 µM | GI50 [37]: 11.4 µM | TGI [37]: 37.2 µM | GI50 [38]: 3.26 µM | TGI [38]: 14.7 µM | GI50 [39]: 2.48 µM | TGI [39]: 7.15 µM | GI50 [40]: 1.68 µM | TGI [40]: 3.26 µM | GI50 [41]: 1.84 µM | TGI [41]: 3.45 µM | GI50 [42]: 3.09 µM | TGI [42]: 10.5 µM | GI50 [43]: 1.92 µM | TGI [43]: 3.92 µM | GI50 [44]: 1.77 µM | TGI [44]: 3.43 µM | GI50 [45]: 2.77 µM | TGI [45]: 24 µM | GI50 [46]: 1.91 µM | TGI [46]: 4.48 µM | GI50 [47]: 1.9 µM | TGI [47]: 3.54 µM | GI50 [48]: 1.94 µM | TGI [48]: 3.99 µM | GI50 [49]: 1.81 µM | TGI [49]: 3.78 µM | GI50 [50]: 1.69 µM | TGI [50]: 3.23 µM | GI50 [51]: 1.78 µM | TGI [51]: 3.4 µM | GI50 [52]: 1.56 µM | TGI [52]: 2.9 µM | GI50 [53]: 2.02 µM | TGI [53]: 4.58 µM | GI50 [54]: 11.8 µM | TGI [54]: 25.6 µM | GI50 [55]: 1.95 µM | TGI [55]: 3.83 µM | GI50 [56]: 2.65 µM | TGI [56]: 7.75 µM | GI50 [57]: 1.69 µM | TGI [57]: 3.96 µM | GI50 [58]: 1.81 µM | TGI [58]: 3.21 µM | GI50 [59]: 4.72 µM | TGI [59]: 17.2 µM

From PubChem BioAssay (NCI)
